# Reference: US20210238173A1, “MITOGEN-ACTIVATED PROTEIN KINASE KINASE 7 INHIBITORS” (Yeda Research and Development Co. Ltd., priority 2018, published 2021)
# Test system: primary mouse B-cells
# Test: Primary B-cell activation (CD86+ FACS) in response to LPS
# Format: cell-based
# Conditions: Mus musculus, B-cell, 10 μM, 2 hours pre-incubation
# Text: Compounds Block Activation of Primary Mouse B-Cells:
# JNK is known to mediate activation of B-cells in response to lypopolysacharide (LPS) through the TLR4 signaling pathway as well as in response to B-cell receptor activation (stimulated e.g. with an anti-IgM antibody). Primary B-cells were isolated from the spleen of mice and assessed for their B-cell activation, via FACS analysis of CD86+ expression, in response to LPS in the presence or absence of the covalent MKK7 enzyme inhibitors presented herein, as well as a positive control JNK inhibitor, JNK-IN-8.
# At 10 μM and 2 hours pre-incubation before stimulation, GO80 was able to inhibit 60% of the CD86+ response.
structure (smiles),measurement,value
C=CC(=O)Nc1cccc(-c2n[nH]c3cc(C)ccc23)c1 [GO80],inhibition at 10 µM,60%
